Measured values taken from US6392049B1, “Process for preparing 2,4-dihydroxypyridine and 2,4-dihydroxy-3-nitropyridine” (Aventis Pharmaceuticals Inc., priority 1996, dated 2002).
Like-named read-outs stand apart in the source and are kept apart here. Blank lines part the entries; values can stand above or below the compound they belong to.

Tests used:
[1] = system: normotensive anesthetized rat; assay: Mean arterial blood pressure and heart rate in normotensive anesthetized rat; format: in vivo; details: for Anesthetized Rat HR/ED25: intravenous dose lowering heart rate by 25%; for Anesthetized Rat MAP/ED25: intravenous dose lowering mean arterial pressure by 25%
Method: Normotensive rats are anesthetized with sodium pentobarbital (50 mg/kg, i.p.) and placed on a heated surgical table. Cannulas are inserted into the femoral artery and veined to allow the measurement of arterial pressure and to facilitate the intravenous administration of test compounds. The animals are allowed to equilibrate for 10 minutes after surgery. Mean arterial pressure is continuously measured and recorded and heart rate is monitored using the arterial pressure pulse to trigger a cardiotachometer. After baseline parameters are established and recorded, increasing doses (1, 3, 10, 30, 100, 300 and 1000 μg/kg) of the compound of Formula I to be tested are administered intravenously. Maximal changes in the cardiovascular parameters are observed after each dose of the adenosine agonist. Only one compound is administered per rat.

[2] = system: spontaneously hypertensive rat (SHR); assay: Oral antihypertensive activity in conscious spontaneously hypertensive rat (SHR); format: in vivo; details: D signifies decrease, I signifies increase
Method: The oral antihypertensive activity of compounds of Formula I are examined in conscious spontaneously hypertensive rats. The rats are anesthetized with sodium phenobarbitol (50 mg/kg i.p.). A telemetry transducer is implanted into the rats abdomen via midline incision. The cannula of the transducer is inserted into the abdominal aorta to allow direct measurement of arterial pressure in the conscious SHR. The transducer is secured to the abdominal wall. After recovery from surgery (minimum of seven days), the SHR are placed on a receiver plate and the transducer/transmitter is activated. Systolic, diastolic and mean arterial pressure and heart rate are recorded for 1.5 hours in the unrestrained conscious rat to establish a stable baseline. Each rat then received a single dose of the compound of Formula I to be tested, or vehicle, and changes in arterial pressure and heart rate are monitored for 20 hours and recorded.

swine coronary arteries = assay: In vitro vasorelaxation in isolated swine coronary arteries; format: cell-based
Method: Swine coronary arteries are obtained from a local slaughter house, dissected carefully and cleaned of fat, blood and adhering tissue. Rings approximately 2-3 mm wide are cut and transferred to water-jacketed tissue baths (10 mL) filled with warm (37° C.), oxygenated (O2/CO2:95%/5%) Krebs-Henseleit buffer and mounted on L-shaped hooks between stainless steel rods and a force transducer. […] PGF2a, before being exposed to 3 μM PGF2a.

A2 receptor = target: T1, A2 receptor (Rattus norvegicus, UniProt P30543); assay: A2 adenosine receptor binding, displacement of 3H-CGS 21680, rat brain striatum membranes
T1 construct: using membranes from rat brain striatum; from tissue; host or cells: rat brain striatum membranes
Method: Non-specific binding is assessed in the presence of 20 μm 2-chloroadenosine.
(§1) The assays are run in glass test tubes in duplicate at 25° C. Once the membranes are added, the tubes are vortexed and incubated at 25° C. for 60 minutes (A1 assay) or 90 minutes (A2 assay) on a rotary shaker. The assay tubes are vortexed halfway through the incubation and again near the end. The assays are terminated by rapid filtration through 2.4 cm GF/B filters using a Brandel Cell Harvestor. The test tubes are washed three times with cold 50 mM tris-HCl (pH 7.7 or 7.4), with filtration being completed within 15 seconds. The damp filter circles are placed in glass scintillation vials filled with 10 ml of Aquasol II (New England Nuclear). The vials are allowed to shake overnight on a rotary shaker and are placed into a liquid scintillation analyzer for two minute counts. IC50 values for receptor binding, i.e. the concentration at which a compound of Formula I displaced the radiolabeled standard, are obtained using a curve-fitting computer program (RS/1, Bolt, Beranek and Newman, Boston, Mass.).

A1 receptor = target: T2, A1 receptor (Rattus norvegicus, UniProt P25099); assay: A1 adenosine receptor binding, displacement of 3H-CHA, whole rat brain membranes; details: 3H-CHA displacement, 25° C., 60 minutes
T2 construct: using a membrane preparation of whole rat brain; from tissue; host or cells: whole rat brain membranes
T2 sequence (P25099 1-326): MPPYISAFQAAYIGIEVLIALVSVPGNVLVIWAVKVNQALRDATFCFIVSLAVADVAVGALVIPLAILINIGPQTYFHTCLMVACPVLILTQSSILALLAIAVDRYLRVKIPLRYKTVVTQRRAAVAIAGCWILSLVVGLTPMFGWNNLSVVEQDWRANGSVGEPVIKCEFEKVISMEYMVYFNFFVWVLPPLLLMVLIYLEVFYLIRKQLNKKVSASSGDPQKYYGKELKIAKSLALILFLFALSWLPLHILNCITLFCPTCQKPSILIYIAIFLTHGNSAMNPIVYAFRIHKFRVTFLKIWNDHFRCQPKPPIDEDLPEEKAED
Method: Non-specific binding is assessed in the presence of 1 mM theophylline.
as §1

rat adipocytes = assay: Antilipolytic activity in rat adipocytes (in vitro lipolysis assay, glycerol production); format: cell-based; details: for EC50: read-out: EC50 (50% inhibition of glycerol production); for inhibition at 1 µM: read-out: % Inhibition of glycerol production, 1 μM
Method: Adipose tissue is removed from anesthetized rats and rinsed twice in incubation medium (2.09 g sodium bicarbonate and 0.04 g EDTA, disodium salt, in 1 L Krebs buffer). Each rat (300-350g) yields approximately 4 ml of adipose tissue. The adipose tissue (35 mL) is cut into small pieces with scissors and washed with incubation medium (50 mL). The mixture is poured into the barrel of a 50 mL syringe to which is attached a short piece of clamped tubing instead of a needle. The aqueous phase is allowed to drain. A second wash with incubation medium is passed through the syringe. The tissue is added to 50 mL of collagenase solution (collagenase (90 mg), bovine serum albumin (BSA) (500 mg), and 0.1 M calcium chloride solution (1 mL), in incubation medium (50 mL)) in a 1 L bottle. The mixture is shaken in an environmental at 37 ° C. for about 60 minutes under an atmosphere of 95% oxygen/5% carbon dioxide to effect digestion of the tissue. The dispersed cells are poured through 2 layers of cheese cloth into a 100 mL plastic beaker. The undigested clumps in the cloth are rinsed once with incubation medium (20 mL). The cells in the beaker are centrifuged in 2 plastic tubes for 30 seconds at room temperature at 300 rpm. The aqueous phase is aspirated from beneath the loosely packed layer of floating fat cells and discarded. The adipocytes are gently poured into a 250 mL plastic beaker containing 100 mL of rinse solution (1 g BSA per 100 mL incubation medium). After gentle stirring the centrifugation step is repeated. Another wash with rinse solution follows. The cells are pooled and their volume is estimated with a graduated cylinder. The adipocytes are diluted in twice their volume of assay buffer (incubation medium (120 mL), BSA (1.2 g), pyruvic acid (13 mg)).
The assay is performed in 20 mL plastic scintillation vials and the total assay volume is 4.2 ml. Assay buffer (2.5 mL), diluted adipocytes (1.5 mL), and a solution of the compound to be tested (12.3 μL) adenosine agonist (12.3 μL; varying concentration) is incubated in the environmental shaker for 15 minutes, then the reaction is started with norepinephrine solution (41.2 μL) (10 nM, in a carrier solution containing water (100 mL), BSA (4 mg), and 0.1 M EDTA (20 μL))and adenosine deaminase (1 μg/ml, 41.2 μL). After sixty minutes in the shaker the reaction is terminated by putting the vials on ice. […] The hard lipid layer is removed by aspiration and the aqueous layer is assayed for glycerol (400 μL of sample). The positive control is done in the absence of any adenosine agonist, substituting water in place of the solution to be tested.

[3] = 50% reduction in tension of rings contracted with 3 μM PGF2a, read-out: Vasorelaxation in Swine Coronary Artery/IC50
[4] = 3H-CGS 21680 displacement, rat brain striatum membranes, 25° C., 90 minutes, read-out: Adenosine Receptor Binding Activity/IC50 (nM) A2
[5] = Adipocyte, rat adipocytes, norepinephrine-stimulated
[6] = Sus scrofa, read-out: Vasorelaxation in Swine Coronary Artery/IC50 (μM)
[7] = rat adipocytes, norepinephrine-stimulated
[8] = Sus scrofa, read-out: Vasorelaxation (IC50)

T1 sequence (P30543 whole entry): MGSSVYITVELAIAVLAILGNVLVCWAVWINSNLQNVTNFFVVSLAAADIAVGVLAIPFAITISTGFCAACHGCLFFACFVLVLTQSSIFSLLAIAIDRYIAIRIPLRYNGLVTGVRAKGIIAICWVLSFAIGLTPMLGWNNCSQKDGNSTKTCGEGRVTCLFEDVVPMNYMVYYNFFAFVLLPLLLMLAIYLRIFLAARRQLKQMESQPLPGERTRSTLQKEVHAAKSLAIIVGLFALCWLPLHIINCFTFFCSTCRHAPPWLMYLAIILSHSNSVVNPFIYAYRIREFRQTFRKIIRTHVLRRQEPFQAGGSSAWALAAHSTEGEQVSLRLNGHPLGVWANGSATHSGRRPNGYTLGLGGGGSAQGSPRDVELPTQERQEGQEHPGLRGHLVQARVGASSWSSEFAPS

- IC50 (swine coronary arteries; [3]): 22 µM
Structure (SMILES): CCNC(=O)C1CC(n2cnc3c(NCCNc4nc5ccccc5s4)ncnc32)C(O)C1O (racemic) [Example 29, (±)-N^6-[2-(2′-aminobenzothia-zoly)ethyl]carbocyclic adenosine-5′-N-ethyl carboxamide]
- Anesthetized Rat HR/ED25 [1]: 31 µg/kg
- Anesthetized Rat MAP/ED25 [1]: 16 µg/kg
- SHR HR/% ([2]; single oral dose 5 mg/kg): 12 (D) %
- SHR MAP/% ([2]; single oral dose 5 mg/kg): 18 (D) %

Structure (SMILES): CO[C@@H]1[C@H](O)[C@@H](CO)O[C@H]1n1cnc2c(N[C@@H]3CC=CC[C@H]3c3cccs3)ncnc21 (relative stereo) [Example 49, N^6-[trans-5-(2-thienyl)cyclohex-1-en-4-yl]-2′-O-methyladenosine]
- IC50 (A2 receptor; [4]): 2880 nM
- IC50 (A1 receptor): 69 nM
- EC50 (rat adipocytes; [5]): 18.6 nM
- IC50 (swine coronary arteries; [6]): 9.81 µM

Structure (SMILES): CCNC(=O)C1CC(n2cnc3c(N[C@H](C)Cc4ccc(Cl)s4)ncnc32)C(O)C1O (single isomer, unassigned; (-)) [Example 6]
- IC50 (A2 receptor; [4]): 12.9 nM
- IC50 (A1 receptor): 2.69 nM
- SHR HR/% ([2]; single oral dose 1 mg/kg): 7 (I) %
- SHR MAP/% ([2]; single oral dose 1 mg/kg): 18 (D) %
- EC50 (rat adipocytes; [7]): 0.76 nM
- IC50 (swine coronary arteries; [3]): 0.021 µM

- IC50 (A2 receptor; [4]): 63.1 nM
- IC50 (A1 receptor): 87.1 nM
- EC50 (rat adipocytes; [7]): 89 nM
- IC50 (swine coronary arteries; [3]): 0.082 µM
Structure (SMILES): CCNC(=O)C1CC(n2cnc3c(NCCc4cccs4)ncnc32)C(O)C1O (single isomer, unassigned; (-)) [Example 26, (−)-N^6-[(thiophen-2″-yl)ethan-2-yl]carbocyclic adenosine-5′-N-ethyl carboxamide]
- Anesthetized Rat HR/ED25 [1]: >30 µg/kg
- Anesthetized Rat MAP/ED25 [1]: 4 µg/kg
- SHR HR/% ([2]; single oral dose 2.5 mg/kg): 3 (I) %
- SHR MAP/% ([2]; single oral dose 2.5 mg/kg): 41 (D) %
- % Inhibition of glycerol production, 1 μM (rat adipocytes; 1 μM compound versus positive control, rat adipocytes, norepinephrine-stimulated): 96%

Structure (SMILES): CCNC(=O)[C@H]1O[C@@H](n2cnc3c(N)nc(NCCc4ccc(CCC(=O)O)cc4)nc32)[C@H](O)[C@@H]1O [CGS21680, 2-[[2-[4-[2-carboxethyl)phenyl]ethyl]amino]-N-ethylcarboxamidoadenosine]
- inhibition at 1 µM (rat adipocytes; Rattus norvegicus, Adipocyte): 0%
- antilipolytic activity (rat adipocytes; statement in words): do not exhibit antilipolytic activity
- IC50 (swine coronary arteries; [8]): 0.08 µM

Structure (SMILES): OC[C@H]1O[C@@H](n2cnc3c(NC4CCCC4)ncnc32)[C@H](O)[C@@H]1O [CPA, N-cyclopentyladenosine]
- IC50 (A2 receptor): 1580 nM
- inhibition at 0.1 µM (rat adipocytes; Rattus norvegicus, Adipocyte, read-out: % Inhibition of glycerol production, 0.1 μM): 97%
- inhibition at 1 µM (rat adipocytes; Rattus norvegicus, Adipocyte): 100%
- EC50 (rat adipocytes; Rattus norvegicus, Adipocyte): 0.31 nM
- IC50 (swine coronary arteries; [8]): 3.18 µM

Structure (SMILES): CCNC(=O)[C@H]1C[C@@H](n2cnc3c(NC(Cc4cccs4)C(C)C)ccnc32)[C@H](O)[C@@H]1O (stereo partly drawn) [Example 38, [1S-[1a,2b,3b,4a]]-4-[7-[[2-(2-thienyl)-1-isopropylethyl]amino]-3H-imidazo[4,5-b]pyridin-3-yl]-N-ethyl-2,3-dihydroxycyclopentanecarboxamide]
- IC50 (A2 receptor; [4]): 55.5 nM
- melting point: 75 to 85 °C
- IC50 (A1 receptor): 5.7 nM
- IC50 (swine coronary arteries; [6]): 0.47 µM

Structure (SMILES): CCNC(=O)[C@H]1C[C@@H](n2cnc3c(N[C@H](C)Cc4ccc(Cl)s4)ncnc32)[C@@H]2OC(=S)O[C@@H]21 [Example 46, (2S)-2a,3a-dihydroxy-4β-[N6-[2-(5-chloro-2-thienyl)-(1R)-1-methylethyl]amino-9-adenyl]cyclopentane-1β-N-ethylcarboxamide-2,3-thiocarbonate]
- IC50 (A2 receptor; [4]): 81 nM
- IC50 (A1 receptor): 13.5 nM
- EC50 (rat adipocytes; [5]): 4 nM
- IC50 (swine coronary arteries; [6]): 3.52 µM

- IC50 (A2 receptor; [4]): 1440 nM
- IC50 (A1 receptor): 8.35 nM
- EC50 (rat adipocytes; [5]): 1.86 nM
Structure (SMILES): CO[C@@H]1[C@H](O)[C@@H](CO)O[C@H]1n1cnc2c(N[C@H](C)Cc3ccc(Cl)s3)ncnc21 [Example 48, N^6-[2-(5-chloro-2-thienyl)-(1R)-1-methylethyl]-2′-O-methyladenosine]

Structure (SMILES): CCNC(=O)[C@H]1O[C@@H](n2cnc3c(N)ncnc32)[C@H](O)[C@@H]1O [NECA, N-ethylcarboxamido-adenosine]
- EC50 (rat adipocytes; Rattus norvegicus, Adipocyte): 2.5 nM

- EC50 (rat adipocytes; [7]): 1 nM
- IC50 (swine coronary arteries; literature compounds, Table V, methods as above, unit inferred, read-out: Vasorelaxation (IC50)): 0.76 µM
Structure (SMILES): C[C@H](Cc1ccccc1)Nc1ncnc2c1ncn2[C@@H]1O[C@H](CO)[C@@H](O)[C@H]1O [R-PIA, R-phenylisopropyladenosine, reference compound]
